Laboratory results as given in patent US11643405B2, “Compound for treatment or prevention of liver diseases” (JIANGSU ATOM BIOSCIENCE AND PHARMACEUTICAL CO., LTD., priority 2018, dated 2023).
In brackets after ≈: the same amount, converted by molar mass. Read-outs that look alike come from different tables or passages of the source.

Experiments:
[1] = system: NASH mice; test: Efficacy on non-alcoholic steatohepatitis (NASH) mice fed high-fat feed; format: in vivo, C57BL/6 mice; settings: for Liver coefficient (liver weight/body weight) / Liver weight: 28 days; for Liver weight: X ± SD
Method: The test compounds were 4 and 7, respectively; the positive control silymarin was purchased from Shanghai Dibai Biotechnology Co., Ltd., with the batch number HH06.
Low-dose group (35 mg/kg) solution preparation: the quantitative test compound was precisely weighed and a certain amount of normal saline was added to prepare the oral suspension solution with the concentration of 3.5 mg/mL. The administration volume was 10 mL/kg.
High-dose group (70 mg/kg) solution preparation: the quantitative test compound was precisely weighed and a certain amount of normal saline was added to prepare the oral suspension solution with the concentration of 7.0 mg/mL. The administration volume was 10 mL/kg.
High-fat feed: basic feed ingredients were corn, flour, imported fish meal, soybean meal, secondary meal, yeast meal, soybean oil, etc. The high-fat feed was prepared from 73.6% basic feed with 10% lard, 10% egg yolk powder, 5% sucrose, 1.2% cholesterol and 0.2% pig bile salt.
Source, species, strain: C57BL/6 mice, provided by Beijing Vital River Laboratory Animal Technology Co., Ltd. Nanjing Branch (experimental animal production license: SCXK (Su) 2016-0003); experimental animal use license: SYXK (Jun) 2012-0049; age: 6-8 weeks at the beginning of dosing; weight: 18-22 g; gender: half male and half female.
After 3 days of adaptive feeding with normal feed, the mice were randomly assigned according to body weight: 8 mice were fed with normal feed and set as normal control (NC); the rest of mice were fed with high-fat feed until the end of the experiment. The mice were weighed and recorded every 3 days. After feeding with high-fat diet for 56 days (8 weeks), blood samples were collected from the orbital vein of mice to detect the blood biochemical indexes to identify whether the modelling was successful.
After successful modeling, the mice in the high-fat feed group were randomly divided into 6 groups with 8 animals in each group, including model group, compound 4 low dose group, compound 4 high dose group, compound 7 low dose group, compound 7 high dose group and silymarin high-dose group. The mice in each group were administered intragastrically according to the animal's body weight every day for 28 consecutive days (4 weeks). At the same time, during the administration period, the mice in each administration group and model group continued to be fed with high-fat feed until the end of the experiment. The normal control group was administered the corresponding volume of normal saline.
On the last day of the experiment, the mice in each group were fasted for 8 hours, blood was taken from the orbit and the serum was separated and then stored at −20° C. After blood collection, the mice were sacrificed and the liver was quickly separated, weighed and stored in a refrigerator at −80° C. Serum samples and liver tissue samples were subjected to determinations of serum triglyceride (TG), serum total cholesterol (TC), serum high-density lipoprotein (HDL-C), serum low-density lipoprotein (LDL-C), serum alanine aminotransferase (ALT), serum aspartate aminotransferase (AST), serum tumor necrosis factor alpha (TNFα), liver triglycerides (TG), liver total cholesterol (TC), liver malondialdehyde (MDA), liver superoxide dismutase (SOD); in addition, some livers of mice in the blank control group, model group, compound 7 low-dose group and silymarin high-dose group were fixed in neutral formaldehyde fixed solution and then HE staining was performed to analyzed the pathological changes of liver tissue.

[2] = Determination of compound solubility in PBS buffer (LC-MS/MS); format: physicochemical; settings: for solubility at 2 h: PBS buffer, aqueous buffer, kinetic from dmso stock, stirred 2 hours, read-out: Solubility
Method: The test compounds were 7, 67 and 85, respectively; the control compound was silymarin, purchased from Shanghai Dibai Biotechnology Co., Ltd., with the batch number HH06. Both the test compounds and the control compound were prepared into 10 mM stock solutions using DMSO. Phosphate buffered saline (PBS), with pH of 4.0 and 7.4, was used to test the solubility of the test compounds.
Treatment of test compound and control compound: 30 μL of test compound or control compound stock solution (10 mM) per well was added in a specially made solubility sample plate, and then 970 μL of PBS with different pH was added to each well (pH was 4.0 and 7.4, respectively). Repeated wells were set in the test. A stir bar was added to each well that was covered with a polytetrafluoroethylene or silica gel plug. Stirring was performed at 25° C. at 1100 rpm for 2 hours. 10 μL of sample was taken from each well, and then 990 μL of water and acetonitrile mixture (including internal standard substance) was added to mix well, followed by filtering with a filter plate.
Standard treatment: 10 mM stock solution was diluted with DMSO to 300 μM, then 10 μL of compound diluent was taken, and 990 μL of water and acetonitrile mixture (including internal standard substance) was added to mix well and formulated into a standard solution with the final concentration 3 μM.
The solubility sample plate was placed in the autosampler and the LC-MS/MS method was used for analysis. The concentration of the test compound was calculated by the response value of the test compound and standard, and the concentration of the standard.

In the case of `COc1cc(C2Oc3cc(C4Oc5cc(O)cc(O)c5CC4O)cc(O)c3OC2CO)ccc1O` (stereo not shown) [Compound 7, 2-{8-hydroxy-3-(4-hydroxy-3-methoxyphenyl)-2-hydroxymethyl-2,3-dihydrobenzo[b][1,4]dioxan-6-yl}chroman-3,5,7-triol], the TG ([1]; 35 mg/kg/day) is reported as 1.22 ± 0.06 mmol/L, the “Liver coefficient (liver weight/body weight)” value ([1]; 35 mg/kg/day intragastric) is reported as 4.53 ± 0.38 % and the Liver weight ([1]; 35 mg/kg/day intragastric) is reported as 1.40 ± 0.05 g. The TG ([1]; 70 mg/kg/day) was 1.25 ± 0.06 mmol/L, the “Liver coefficient (liver weight/body weight)” value ([1]; 70 mg/kg/day intragastric) was 4.51 ± 0.28 % and the Liver weight ([1]; 70 mg/kg/day intragastric) was 1.41 ± 0.02 g. The “Therapeutic effect on non-alcoholic steatohepatitis in mice (in words)” value ([1]; 35 and 70 mg/kg) was “significant therapeutic effects”, the MDA ([1]; liver, 35 mg/kg/day) was 2.84 ± 0.24 nmol/mg and the SOD ([1]; liver, 35 mg/kg/day) was 18.54 ± 4.41 U/mg. It also gave a TC ([1]; liver, 35 mg/kg/day) of 1.53 ± 0.06 mmol/L, an MDA ([1]; liver, 70 mg/kg/day) of 2.79 ± 0.21 nmol/mg and an SOD ([1]; liver, 70 mg/kg/day) of 19.44 ± 3.11 U/mg. For the same molecule, the TC ([1]; liver, 70 mg/kg/day) was 1.54 ± 0.09 mmol/L, the “Liver histopathology (HE staining)” value ([1]; low-dose group (35 mg/kg)) was “no lipid droplet vacuoles caused by steatosis” and the ALT ([1]; serum, 35 mg/kg/day) was 63.03 ± 30.59 U/L. The AST ([1]; serum, 35 mg/kg/day) was 115.16 ± 13.42 U/L, the HDL-C ([1]; serum, 35 mg/kg/day) was 0.83 ± 0.35 mmol/L and the LDL-C ([1]; serum, 35 mg/kg/day) was 1.95 ± 0.50 mmol/L. For the same molecule, the TC ([1]; serum, 35 mg/kg/day) was 2.59 ± 0.38 mmol/L, the TG ([1]; serum, 35 mg/kg/day) was 1.13 ± 0.06 mmol/L and the TNF-α ([1]; serum, 35 mg/kg/day) was 414.26 ± 11.57 ng/L. The ALT ([1]; serum, 70 mg/kg/day) was 75.75 ± 27.48 U/L, the AST ([1]; serum, 70 mg/kg/day) was 123.61 ± 5.41 U/L and the HDL-C ([1]; serum, 70 mg/kg/day) was 0.89 ± 0.46 mmol/L. For the same molecule, the LDL-C ([1]; serum, 70 mg/kg/day) was 1.85 ± 0.37 mmol/L, the TC ([1]; serum, 70 mg/kg/day) was 2.63 ± 0.81 mmol/L and the TG ([1]; serum, 70 mg/kg/day) was 1.11 ± 0.07 mmol/L. The TNF-α ([1]; serum, 70 mg/kg/day) was 425.80 ± 9.77 ng/L, the solubility at 2 h ([2]; PBS pH = 4.0, 25° C.) was 209 µM (≈ 101 µg/mL) and the solubility at 2 h ([2]; PBS pH = 7.4, 25° C.) was 214 µM (≈ 104 µg/mL). The “Solubility in PBS buffer solution compared with silymarin (in words)” value ([2]; pH 4.0 and 7.4) was “significantly higher than that of silymarin”.
